Data from US5414001A, “Antineoplastic pyrrolo[4,3,2-de]quinolin-8(1H)-ones” (American Cyanamid Company, priority 1993, dated 1995).
In brackets after ≈: the same amount, converted by molar mass. Counter-ions that a name gives are not always drawn. Like-named read-outs stand apart in the source and are kept apart here.

Assays:
CaCo2 / CX1 [1] = assay: SRB cytotoxicity ratio CaCo2/CX1 (growth kinetics); conditions: IC50 resistant / IC50 sensitive cell line, 2880 min
Protocol: (§1) The cytotoxic activity of the pyrrolo[4,3,2-de]quinolin-8(1H)-ones against a panel of >20 human tumor cell lines is determined using the Sulforhodamine B protein dye-binding colorimetric cytotoxicity assay (SRB) described by Skehan et al. (Journal National Cancer Institute 82:1107-1112, 1990), as modified by Monks et al., (Journal National Cancer Institute 83: 757-766, 1991). […] Positive controls (i.e., etoposide) are included in every experiment. Treatments are for 48 hours, after which cells are fixed in 10% trichloroacetic acid (10% final concentration), washed five times with deionized water and stained with SRB solution (0.4% in glacial acetic acid). Protein-bound stain is solubilized with 0.1 ml tris buffer and the adsorbance values are recorded with a microplate reader. Duplicate plates of cells are fixed with trichloroacetic acid at the time of drug addition to establish To values, as described by Monks et al. (JNCl, 83: 757-766, 1991). The effect of drug treatments over the five-long range of concentrations is calculated using the formula, T--To/C--To, to determine the IC50 values.
(§2) 3) The ratio values for DDP/S; CaCo2/CX1; MIP/SW620, and; HCT15/SKBR3 refer to the IC50 value for resistant cell lines included in the tumor cell panel, divided by the IC50 value for corresponding drug sensitive cell lines. For example, DDP is a Cisplatin resistant ovarian carcinoma cell line, and S is the corresponding parent drug sensitive ovarian carcinoma cell line (A2780). […] CaCo2 is a slow growing non P-glycoprotein multidrug resistant colon carcinoma cell line. MIP is a colon carcinoma cell line that expresses P-glycoprotein and is multidrug resistant; SW620 is a drug sensitive colon carcinoma cell line. HCT15 is a colon carcinoma cell line that is resistant to topoisomerase inhibitors and SKBR3 is a breast carcinoma that is very sensitive to topoisomerase inhibitors.

[2] = test system: panel of >20 human tumor cell lines; assay: In vitro tumor panel evaluation, Sulforhodamine B (SRB) cytotoxicity assay; type: cell-based; conditions: for IC50: Homo sapiens
HCT15 / SKBR3 = assay: SRB cytotoxicity ratio HCT15/SKBR3 (topoisomerase resistance); type: cell-based, human; conditions: 2880 min
MIP / SW620 = assay: SRB cytotoxicity ratio MIP/SW620 (MDR, P-glycoprotein resistance); type: cell-based, human; conditions: 2880 min
[3] = test system: DDP (Cisplatin resistant ovarian carcinoma cell line) / S (A2780); assay: SRB cytotoxicity ratio DDP/S (cisplatin resistance); type: cell-based, human; conditions: 2880 min
CaCo2 / CX1 [4] = conditions: human, Caco-2, 48 h
Protocol: as §1, §2

[5] = Mean IC50 value for all 20 cell lines, 48 hours, read-out: AVG IC50
[6] = least sensitive cell line, 48 hours, read-out: MAX IC50
[7] = most sensitive cell line, 48 hours, read-out: MIN IC50
[8] = IC50 resistant / IC50 sensitive cell line, topoisomerase resistance
[9] = IC50 resistant / IC50 sensitive cell line, MDR (pglycoprotein) resistance
[10] = IC50 resistant / IC50 sensitive cell line, cisplatin resistance

CaCO2/CX1 IC50 ratio (CaCo2 / CX1 [4]) | SMILES | CaCO2/CX1 IC50 ratio (CaCo2 / CX1 [1]) | IC50 [2, 5] [µg/mL] | IC50 [2, 6] [µg/mL] | IC50 [2, 7] [µg/mL] | HCT15/SKBR3 IC50 ratio (HCT15 / SKBR3; [8]) | MIP/SW620 IC50 ratio (MIP / SW620; [9]) | DDP/S IC50 ratio [3, 10] | HCT15/SKBR3 IC50 ratio (HCT15 / SKBR3; human, hct15/skbr3 cells) | MIP/SW620 IC50 ratio (MIP / SW620; human, mip/sw620 cells) | DDP/S IC50 ratio ([3]; human, ddp/s ovarian carcinoma cells) | IC50 ([2]; 48 h, read-out: AVG IC50) [µg/mL] | IC50 ([2]; 48 h, read-out: MAX IC50) [µg/mL] | IC50 ([2]; 48 h, read-out: MIN IC50) [µg/mL] | AVG IC50 ([2]; Mean IC50 value for all 20 cell lines, 48 hours) [µg/mL] | MAX IC50 ([2]; least sensitive cell line, 48 hours) [µg/mL] | MIN IC50 ([2]; most sensitive cell line, 48 hours) [µg/mL]
 | Cn1cc2ccnc3c2c1C(=O)C(N)=C3.O=C(O)C(F)(F)F [Example 2, 7-amino-1-methyl-pyrrolo[4,3,2-de]quinolin-8(1H)-one trifluoroacetate] | 0.6 | 18 | 25.1 | 2.03 | 6.7 | 0.9 | 1.0 |  |  |  |  |  |  |  |  | 
 | Cn1cc2c3c1C(=O)C(N/C=C/c1ccc(O)cc1)=CC3=NCC2.O=C(O)C(F)(F)F [Example 5, (E)-7-[[2-(4-hydroxyphenyl)ethenyl]amino]-1-methyl-3,4-dihydropyrrolo[4,3,2-de]quinolin-8(1H)-one trifluoroacetate] | 1.5 | 2.3 | 3.44 | 1.23 | 0.3 | 1.1 | 1.1 |  |  |  |  |  |  |  |  | 
0.25 | C[N+]1=C2C(Cl)=C(N)C(=O)c3[nH]cc(c32)CC1 [Example 10, 7-Amino-6-chloro-1,3,4,8-tetrahydro-5-methyl-8-oxo-pyrrolo[4,3,2-de]quinolinium trifluoroacetate] |  | 5.1 | 10 | 1.29 | 1.5 | 0.7 |  |  |  |  |  |  |  |  |  | 
0.7 | C[N+]1=C2C(Br)=C(N)C(=O)c3[nH]c(Br)c(c32)CC1 [Example 13, 7-Amino-2,6-dibromo-1,3,4,8-tetrahydro-5-methyl-8-oxo-pyrrolo[4,3,2-de]quinolinium trifluoroacetate] |  | 2.4 | 7.71 | 0.4 | 1.7 | 0.9 | 1.1 |  |  |  |  |  |  |  |  | 
0.8 | C[N+]1=C2C=C(N)C(=O)c3c2c(cn3Cc2cccc(Cl)c2)CC1 [Example 21, 7-Amino-1-[(3-chlorophenyl]methyl]-1,3,4,8-tetrahydro-5-methyl-8-oxo-pyrrolo[4,3,2-de]quinolinium trifluoroacetate] |  | 1.4 | 4.47 | 0.28 | 7.1 | 7.0 | 1.5 |  |  |  |  |  |  |  |  | 
1.0 | COc1cccc(Cn2cc3c4c2C(=O)C(N)=CC4=[N+](C)CC3)c1 [Example 23, 7-Amino-1,3,4,8-tetrahydro-1-[(3-methoxyphenyl)methyl]-5-methyl-8-oxo-pyrrolo[4,3,2-de]quinolinium trifluoroacetate] |  | 2.1 | 4.2 | 0.45 | 3.8 | 8.6 | 1.2 |  |  |  |  |  |  |  |  | 
3.6 | CNC1=CC2=[N+](C)CCc3cn(C)c(c32)C1=O [Example 30, 1,3,4,8-Tetrahydro-1,5-dimethyl-7-(methylamino)-8-oxo-pyrrolo[4,3,2-de]quinolinium trifluoroacetate] |  | 4.5 | 25.9 | 0.41 | 12.7 | 65.8 | 1.1 |  |  |  |  |  |  |  |  | 
0.6 | C=CC[N+]1=C2C=C(N)C(=O)c3c2c(cn3C)CC1 [Example 31, 7-Amino-1,3,4,8-tetrahydro-1-methyl-8-oxo-5-(2-propenyl)[4,3,2-de]quinolinium trifluoroacetate] |  | 1.7 | 2.59 | 0.34 | 2.7 | 8.0 | 1.2 |  |  |  |  |  |  |  |  | 
1.3 | CNC1=CC2=[N+](C)CCc3c[nH]c(c32)C1=O [Example 35, 1,3,4,8-Tetrahydro-5-methyl-7-(methylamino)-8-oxo-pyrrolo[4,3,2-de]quinolinium trifluoroacetate] |  | 5.7 | 24.4 | 1.2 | 9.1 | 20.3 | 1.0 |  |  |  |  |  |  |  |  | 
4.8 | CCCCCCCCN(CCCCCCCC)C1=CC2=[N+](C)CCc3c[nH]c(c32)C1=O [Example 39, 1,3,4,8-Tetrahydro-5-methyl-7-(dioctylamino)-8-oxo-pyrrolo[4,3,2-de]quinolinium trifluoroacetate] |  | 0.8 | 2.71 | 0.19 | 122.0 | 9.0 | 1.7 |  |  |  |  |  |  |  |  | 
19.8 | C[N+]1=C2C=C(NCc3ccoc3)C(=O)c3[nH]cc(c32)CC1.O=C([O-])C(F)(F)F [Example 43, 7-[(3-Furanylmethyl)amino]-1,3,4,8-tetrahydro-5-methyl-8-oxo-pyrrolo[4,3,2-de]quinolinium trifluoroacetate] |  |  |  |  | 78.5 | 90.8 | 1.6 |  |  |  |  |  |  | 6.4 | 36.3 | 0.27
32.0 | C[N+]1=C2C=C(NCc3cccc4ccccc34)C(=O)c3[nH]cc(c32)CC1 [Example 44, 1,3,4,8-Tetrahydro-5-methyl-7-[(1-naphthalenylmethyl)amino]-8-oxo-pyrrolo[4,3,2-de]quinolinium trifluoroacetate] |  | 5.6 | 27.1 | 0.02 | 1140.0 | 67.8 | 11.3 |  |  |  |  |  |  |  |  | 
5.4 | C[N+]1=C2C=C(NCc3ccccc3)C(=O)c3[nH]cc(c32)CC1 [Example 46, 1,3,4,8-Tetrahydro-5-methyl-8-oxo-7-[(phenylmethyl)amino]-pyrrolo[4,3,2-de]quinolinium trifluoroacetate] |  | 7 | 22.3 | 0.2 | 113.0 | 8.3 | 1.6 |  |  |  |  |  |  |  |  | 
1.0 | C[N+]1=C2C=C(NCc3ccc(O)cc3)C(=O)c3[nH]cc(c32)CC1 [Example 49, 1,3,4,8-Tetrahydro-7-[[(4-hydroxyphenyl)methyl]amino]-5-methyl-8-oxo-pyrrolo[4,3,2-de]quinolin-8 (1H)-one trifluoroacetate] |  | 3.3 | 13.9 | 0.92 | 15.4 | 4.2 | 1.1 |  |  |  |  |  |  |  |  | 
0.8 | CN1CCc2cn(C)c3c2C1=CC(=O)C3=O [Example 52, 1,3,4,5-Tetrahydro-1,5-dimethyl-pyrrolo[4,3,2-de]quinoline-7,8-dione] |  | 25 (≈ 116 µM) | 50 (≈ 231 µM) | 12.3 (≈ 56.9 µM) | 2.6 | 1.5 | 1.1 |  |  |  |  |  |  |  |  | 
1.4 | C[N+]1=C2C=C(N)C(=O)c3c2c(cn3CCC#N)CC1 [Example 56, 7-Amino-1-(2-cyanoethyl)-1,3,4,8-tetrahydro-5-methyl-8-oxo-pyrrolo[4,3,2-de]quinolinium trifluoroacetate] |  | 4.7 | 21.5 | 1.56 | 3.1 | 2.0 | 1.0 |  |  |  |  |  |  |  |  | 
34.0 | C[N+]1=C2C=C(NCC(O)c3ccccc3)C(=O)c3[nH]cc(c32)CC1 (centres unmarked) [Example 58, 1,3,4,8-Tetrahydro-7-[2-hydroxy-2-phenylethyl)amino]-5-methyl-8-oxo-pyrrolo[4,3,2-de]quinolinium trifluoroacetate] |  | 11 | 50 | 0.22 | 227.0 | 167.0 | 1.5 |  |  |  |  |  |  |  |  | 

SMILES | CaCO2/CX1 IC50 ratio (CaCo2 / CX1 [4]) | CaCO2/CX1 IC50 ratio (CaCo2 / CX1 [1]) | IC50 [2, 5] [µg/mL] | IC50 [2, 6] [µg/mL] | IC50 [2, 7] [µg/mL] | HCT15/SKBR3 IC50 ratio (HCT15 / SKBR3; [8]) | MIP/SW620 IC50 ratio (MIP / SW620; [9]) | DDP/S IC50 ratio [3, 10] | HCT15/SKBR3 IC50 ratio (HCT15 / SKBR3; human, hct15/skbr3 cells) | MIP/SW620 IC50 ratio (MIP / SW620; human, mip/sw620 cells) | DDP/S IC50 ratio ([3]; human, ddp/s ovarian carcinoma cells) | IC50 ([2]; 48 h, read-out: AVG IC50) [µg/mL] | IC50 ([2]; 48 h, read-out: MAX IC50) [µg/mL] | IC50 ([2]; 48 h, read-out: MIN IC50) [µg/mL] | AVG IC50 ([2]; Mean IC50 value for all 20 cell lines, 48 hours) [µg/mL] | MAX IC50 ([2]; least sensitive cell line, 48 hours) [µg/mL] | MIN IC50 ([2]; most sensitive cell line, 48 hours) [µg/mL]
Cn1cc2c3c1C(=O)C(N)=C(Br)C3=NCC2 [Example 14, 7-Amino-6-bromo-3,4-dihydro-1-methyl-8-oxo-pyrrolo [4,3,2-de]quinolin-8 (1H) -one trifluoroacetate] | 0.8 |  | 2.3 | 3.54 | 0.84 |  |  |  | 2.1 | 1.4 | 1.2 |  |  |  |  |  | 
Cn1cc2c3c1C(=O)C(N)=CC3=[N+](C)CC2 [Example 29, 7-Amino-1,3,4,8-tetrahydro-1,5-dimethyl-8-oxo-pyrrolo[4,3,2-de] quinolinium trifluoroacetate] | 2.9 |  |  |  |  |  |  |  | 1.8 | 1.8 |  | 2.6 | 5.7 | 1.03 |  |  | 
Cn1cc2c3c1C(=O)C(N)=CC3=[N+](Cc1ccccc1)CC2 [Example 32, 7-Amino-1,3,4,8-tetrahydro-1-methyl-8-oxo-5-(phenylmethyl)-pyrrolo[4,3,2-de]quinolinium trifluoroacetate] | 1.8 |  |  |  |  |  |  |  | 3.5 | 0.9 |  | 2.1 | 10 | 0.37 |  |  | 
